The EC50 is the midpoint of the concentration-response curve. A higher EC50 goes with a need for much substance.

The assay addresses T1, Solute carrier family 12 member 5 (Homo sapiens, UniProt Q9H2X9).
T1 sequence (Q9H2X9 whole entry): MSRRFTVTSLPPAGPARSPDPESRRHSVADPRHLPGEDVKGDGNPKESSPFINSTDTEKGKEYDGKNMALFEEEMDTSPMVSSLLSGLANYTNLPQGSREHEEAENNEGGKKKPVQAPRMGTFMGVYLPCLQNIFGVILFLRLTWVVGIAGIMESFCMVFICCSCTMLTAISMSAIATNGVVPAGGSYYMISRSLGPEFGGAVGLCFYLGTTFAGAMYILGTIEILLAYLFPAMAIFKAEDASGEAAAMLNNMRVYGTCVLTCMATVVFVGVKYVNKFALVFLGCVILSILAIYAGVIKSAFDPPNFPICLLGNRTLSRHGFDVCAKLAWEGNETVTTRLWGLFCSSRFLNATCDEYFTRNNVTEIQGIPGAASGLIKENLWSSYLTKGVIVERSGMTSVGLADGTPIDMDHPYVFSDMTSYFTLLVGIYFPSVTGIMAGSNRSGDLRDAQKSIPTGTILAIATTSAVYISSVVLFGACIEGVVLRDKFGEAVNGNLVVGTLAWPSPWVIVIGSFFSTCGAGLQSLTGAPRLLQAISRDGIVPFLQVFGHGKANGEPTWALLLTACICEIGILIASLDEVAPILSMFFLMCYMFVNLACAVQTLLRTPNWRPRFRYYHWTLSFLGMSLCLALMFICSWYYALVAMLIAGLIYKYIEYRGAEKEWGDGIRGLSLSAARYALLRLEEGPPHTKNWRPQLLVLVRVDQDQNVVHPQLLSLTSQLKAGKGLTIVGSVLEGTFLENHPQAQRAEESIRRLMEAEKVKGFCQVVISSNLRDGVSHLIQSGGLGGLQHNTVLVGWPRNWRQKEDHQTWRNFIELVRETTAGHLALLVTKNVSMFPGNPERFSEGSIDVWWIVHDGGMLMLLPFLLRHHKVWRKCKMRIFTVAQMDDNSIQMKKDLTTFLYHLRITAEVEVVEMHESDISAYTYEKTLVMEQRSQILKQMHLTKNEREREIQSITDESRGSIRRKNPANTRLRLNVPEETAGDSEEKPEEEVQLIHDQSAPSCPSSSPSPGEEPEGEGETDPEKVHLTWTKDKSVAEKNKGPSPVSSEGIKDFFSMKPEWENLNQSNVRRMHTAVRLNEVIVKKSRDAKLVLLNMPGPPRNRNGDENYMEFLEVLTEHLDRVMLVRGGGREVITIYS
Kind of assay: KCC2 modulator potency by thallium flux, dose response, cell-based, HEK293 KCC2, FluoZin-2 fluorescence (AID 1736).

Setting [1] is: inactive by the depositor's call.

`O=C(C1CC1)N1CCc2cc(S(=O)(=O)NC3CCN(Cc4ccccc4)CC3)ccc21` [1-[cyclopropyl(oxo)methyl]-N-[1-(phenylmethyl)-4-piperidinyl]-2,3-dihydroindole-5-sulfonamide] displayed an EC50 of 6.33 µM.
The same measure, in the same setting: under `Cc1ccc(-c2noc(CN3CCN(Cc4ccccc4)CC3)n2)cc1` [1-benzyl-4-{[3-(4-methylphenyl)-1,2,4-oxadiazol-5-yl]methyl}piperazine] stands 6.64 µM.
`CCCn1c(NC(=S)Nc2ccccc2)nc2ccccc21` [1-phenyl-3-(1-propyl-2-benzimidazolyl)thiourea] returned an EC50 under setting [1] of 60400 µM. In other words, the millimolar range.
`O=C(c1ccc(S(=O)(=O)c2cccc(Cl)c2)c([N+](=O)[O-])c1)N1CCN(c2ccccn2)CC1` [1-{4-[(3-chlorophenyl)sulfonyl]-3-nitrobenzoyl}-4-pyridin-2-ylpiperazine] showed an EC50 of 6.85 µM.
On to `COc1cc(C=NNC(=O)CN(Cc2ccccc2)S(=O)(=O)c2ccc3c(c2)OCCO3)ccc1O` [2,3-Dihydro-benzo[1,4]dioxine-6-sulfonic acid benzyl-(4-hydroxy-3-methoxy-benzylidene-hydrazinocarbonylmethyl)-amide], for which the response was half-maximal at 2.79 µM (EC50).
The molecule `O=C(NC(=S)Nc1nc(-c2cccc([N+](=O)[O-])c2)cs1)c1cc(Cl)ccc1Cl` [2,5-bis(chloranyl)-N-[[4-(3-nitrophenyl)-1,3-thiazol-2-yl]carbamothioyl]benzamide] had an EC50 of 16.2 µM. Against the preceding molecule, the EC50 is about 5.8-fold higher.
`CCn1nnnc1SCC(=O)Nc1nc(-c2cccs2)cs1` [2-(1-Ethyl-1H-tetrazol-5-ylsulfanyl)-N-(4-thiophen-2-yl-thiazol-2-yl)-acetamide] displayed an EC50 of 1.32 µM. Compared with the last molecule, the EC50 is about 12-fold lower.
The molecule `Cn1c(CSc2nc3ccccc3s2)nc2ccccc21` [2-(1-Methyl-1H-benzoimidazol-2-ylmethylsulfanyl)-benzothiazole] came in with an EC50 of 14.8 µM.
`Cn1cc(SCC(=O)N2CCN(c3ccccc3)CC2)c2ccccc21` [2-(1-methylindol-3-yl)sulfanyl-1-(4-phenylpiperazin-1-yl)ethanone] registered an EC50 under setting [1] of 78.4 µM.
For the molecule `C=CCNc1oc(Cc2cccc3ccccc23)nc1C#N` [2-(1-naphthalenylmethyl)-5-(prop-2-enylamino)-4-oxazolecarbonitrile], a half-maximal response (EC50) required 4.78 µM.
Regarding `O=C(CSc1nnnn1-c1ccccc1)Nc1nsc(-c2ccccc2)n1` [2-(1-phenyltetrazol-5-yl)sulfanyl-N-(5-phenyl-1,2,4-thiadiazol-3-yl)acetamide], a half-maximal effect under setting [1] (EC50) was put at 1.4 µM.
On to `O=C(CN1C(=O)NC2(CCCC2)C1=O)Nc1nc(-c2ccc(F)cc2)cs1` [2-(2,4-diketo-1,3-diazaspiro[4.4]nonan-3-yl)-N-[4-(4-fluorophenyl)thiazol-2-yl]acetamide], for which the response was half-maximal at 0.0699 µM (EC50).
The same measure, in the same setting: in the case of `CCc1ccc(C(=O)COC(=O)c2cc([N+](=O)[O-])ccc2NCCO)cc1` [2-(2-hydroxyethylamino)-5-nitro-benzoic acid [2-(4-ethylphenyl)-2-keto-ethyl] ester] it was 17.2 µM; in that of `O=C(COC(=O)c1cc([N+](=O)[O-])ccc1NCCO)c1ccccc1` [2-(2-hydroxyethylamino)-5-nitro-benzoic acid phenacyl ester], 9.16 µM.
In the case of `COc1ccccc1-c1nc(C#N)c(N2CCC(Cc3ccccc3)CC2)o1` [2-(2-methoxyphenyl)-5-[4-(phenylmethyl)-1-piperidinyl]-4-oxazolecarbonitrile], under setting [1], a half-maximal effect (EC50) was put at 0.733 µM. In other words, the sub-micromolar range.
On the same count and under the same terms, in the case of `Cc1nc(CC(=O)Nc2nc(-c3ccccc3)cs2)cs1` [2-(2-methyl-1,3-thiazol-4-yl)-N-(4-phenyl-1,3-thiazol-2-yl)acetamide] it was 1.81 µM; in that of `O=C(COc1ccc2ccccc2c1)NN=Cc1ccccn1` [2-(2-naphthalenyloxy)-N-(2-pyridinylmethylideneamino)acetamide], 330 µM.
The molecule `Cc1cc(C)c(C#N)c(N2CCN(Cc3ccccc3)CC2)n1` [2-(4-benzyl-1-piperazinyl)-4,6-dimethylnicotinonitrile] displayed an EC50 of 11.3 µM.
Still for that read-out and setting: in the case of `O=C(Cn1nc(-c2ccccc2)ccc1=O)NCc1ccc2c(c1)OCO2` [2-(6-keto-3-phenyl-pyridazin-1-yl)-N-piperonyl-acetamide] it was 3.26 µM.
Still for that read-out and setting: under `O=C(Cn1cnc2c(nnn2-c2ccccc2)c1=O)NCCc1ccccc1` [2-(7-keto-3-phenyl-triazolo[4,5-d]pyrimidin-6-yl)-N-phenethyl-acetamide] stands 27.5 µM.
In turn, `O=C(COC(=O)c1cc([N+](=O)[O-])ccc1NCc1ccccc1)NC1CCCCC1` [2-(benzylamino)-5-nitro-benzoic acid [2-(cyclohexylamino)-2-keto-ethyl] ester] came in with an EC50 of 0.651 µM.
Same read-out and setting: under `O=C(O)c1cc([N+](=O)[O-])ccc1NCc1ccccc1` [2-(benzylamino)-5-nitro-benzoic acid] stands 4.19 µM; under `O=[N+]([O-])c1ccc(CSc2nnc(SCc3ccccc3)s2)cc1` [2-(benzylthio)-5-[(4-nitrobenzyl)thio]-1,3,4-thiadiazole], 2.24 µM.
`CCc1ccc(OCCNC(=O)c2ccccc2SCc2ccccc2)cc1` [2-(benzylthio)-N-[2-(4-ethylphenoxy)ethyl]benzamide]: it took 7.39 µM to reach a half-maximal effect (EC50).
The same measure, in the same setting: under `O=c1c2ccccc2c(-c2nnc(S)o2)nn1Cc1ccccc1` [2-(phenylmethyl)-4-(2-sulfanylidene-3H-1,3,4-oxadiazol-5-yl)-1-phthalazinone] stands 2.98 µM; under `COc1ccc(S(=O)(=O)N2CCC(C(=O)N3CCc4ccccc4C3)CC2)cc1C` [2-({1-[(4-methoxy-3-methylphenyl)sulfonyl]-4-piperidinyl}carbonyl)-1,2,3,4-tetrahydroisoquinoline], 5.4 µM.
Regarding `O=C(CSc1nnnn1-c1ccc(Cl)cc1)N1CCc2ccccc2C1` [2-[1-(4-chlorophenyl)tetrazol-5-yl]sulfanyl-1-(3,4-dihydro-1H-isoquinolin-2-yl)ethanone], the EC50 turned out to be 4.09 µM.
Same read-out and setting: in the case of `O=C(CSc1ccccc1C(=O)NCc1ccccc1)NC1CCCCCCC1` [2-[2-(cyclooctylamino)-2-oxidanylidene-ethyl]sulfanyl-N-(phenylmethyl)benzamide] it was 51.6 µM; in that of `NC(=O)COc1ccccc1/C=C1/SC(=O)N(CC(=O)N2CCc3ccccc3C2)C1=O` [2-[2-({3-[2-(3,4-dihydro-2(1H)-isoquinolinyl)-2-oxoethyl]-2,4-dioxo-1,3-thiazolidin-5-ylidene}methyl)phenoxy]acetamide], 32 µM.
`O=C(Cn1cnc2c(nnn2Cc2ccc(F)cc2)c1=O)NCc1ccc2c(c1)OCO2` [2-[3-(4-fluorobenzyl)-7-keto-triazolo[4,5-d]pyrimidin-6-yl]-N-piperonyl-acetamide] displayed an EC50 of 1.69 µM.
Same read-out and setting: in the case of `O=[N+]([O-])c1cc(-n2c(O)c3c(c2O)CCCC3)ccc1NC1CCN(Cc2ccccc2)CC1` [2-[3-nitro-4-[[1-(phenylmethyl)-4-piperidinyl]amino]phenyl]-3a,4,5,6,7,7a-hexahydroisoindole-1,3-dione] it was 221 µM.
The same measure, in the same setting: in the case of `O=C(CSc1nnc(-c2ccc(F)cc2)o1)N1CCN(C(=O)c2ccco2)CC1` [2-[5-(4-Fluoro-phenyl)-[1,3,4]oxadiazol-2-ylsulfanyl]-1-[4-(furan-2-carbonyl)-piperazin-1-yl]-ethanone] it was 7.01 µM; in that of `Cc1ccc(C)c(NC(=O)CSc2nnc([C@@H](N)Cc3ccccc3)o2)c1` [2-[5-((S)-1-Amino-2-phenyl-ethyl)-[1,3,4]oxadiazol-2-ylsulfanyl]-N-(2,5-dimethyl-phenyl)-acetamide], 5.54 µM; in that of `CC1CCN(C(=O)CSc2ccc(-c3ccc(F)cc3)nn2)CC1` [2-[6-(4-Fluoro-phenyl)-pyridazin-3-ylsulfanyl]-1-(4-methyl-piperidin-1-yl)-ethanone], 2.66 µM.
Still for that read-out and setting: under `Cc1cc(NC(=O)CSc2ccc(-c3ccc(F)cc3)nn2)no1` [2-[6-(4-fluorophenyl)pyridazin-3-yl]sulfanyl-N-(5-methyl-1,2-oxazol-3-yl)acetamide] stands 0.171 µM; under `Cc1ccc(NC(=O)CSc2ccc(-c3ccco3)nn2)cc1` [2-[6-(furan-2-yl)pyridazin-3-yl]sulfanyl-N-(4-methylphenyl)acetamide], 3.48 µM; under `CCC(Cc1ccccc1)NC(=O)CN(C)S(=O)(=O)c1ccc2c(c1)c(=O)n(C)c(=O)n2C` (stereo not drawn) [2-[(1,3-dimethyl-2,4-dioxo-6-quinazolinyl)sulfonyl-methylamino]-N-(1-phenylbutan-2-yl)acetamide], 7.26 µM.
In the case of `Cn1c(SCc2ccccc2Cl)nc2ccccc21` [2-[(2-chlorobenzyl)thio]-1-methyl-1H-benzimidazole], a half-maximal response (EC50) required 260 µM.

For the origin of these results see BindingDB's records for doi:10.7270/Q2TX3CSC (Vanderbilt Screening Center for GPCRs, Ion Channels and …, 2009).
